Source: patent publication US20150374646A1, “TREATMENT OF CANCER AND OTHER CONDITIONS USING A TRANSCRIPTION FACTOR MODULATOR” (C & C BIOPHARMA, LLC, priority 2013, published 2015)
pIC50: −log10 of the molar value.

Assays:
[1] = system: SEM cells; test: Leukemia cell growth inhibition, CellTiter-Glo (Example 1); type: cell-based; settings: Homo sapiens, ALL (B-cell), 72 hours
Experimental: (§2) Various human leukemia cells were grown to the logarithmic growth phase and seeded into 24-well plates. […] Treated cells were further incubated for 72 hours and then were examined for cell proliferation. Cell proliferation was determined using the CellTiter-Glo Luminescence Cell Viability assay (Promega Corporation, Madison, Wis.) according to the manufacturer's protocol. The calculated inhibition rate was determined with the following formula: Inhibition rate (%)=(1−Luminescence of experimental group/Luminescence of control group)×100. IC50 is the calculated concentration of a compound needed to inhibit half of the maximum cell growth (equivalent to cell growth in control group) based on the corresponding dose-response curve under the described experimental conditions.

[2] = system: MOLT-4; test: as above; type: cell-based; settings: Homo sapiens; MOLT-4, ALL (T-cell); 72 hours
Experimental: as §2

[3] = system: K562 cells; test: Subcutaneous K562 (CML) tumor growth in SCID mice (Example 6); type: in vivo; settings: for Average body weight, End point / Average body weight, Initial / Tumor size / Tumor weight: x ± s; for Average body weight, Initial: initial (before treatment)
Experimental: Male Severe Combined Immunodeficiency (SCID) mice that were 4-6 weeks old were used in the experiment. The mice were fed under specific pathogen free (SPF) conditions. Food and water were available to the mice at will. A suspension of 8×10^6 chronic myelogenous leukemia K562 cells (0.2 mL) was inoculated subcutaneously into the right back of the SCID mice.
The general conditions of the mice and the growth of the transplanted tumor were monitored. […] The control group received an intraperitoneal injection (IP) of 0.2 mL solvent (20% DMSO, 80% of 20% w/v (2-hydroxypropyl)-β-cyclodextrin made in PBS). […] The YT30 treated groups received either intraperitoneal injection of 50 mg/kg/day of YT30 (0.2 mL in volume) suspended in solvent (20% DMSO, 80% of 20% w/v (2-hydroxypropyl)-β-cyclodextrin made in PBS) or oral gavage of 90 mg/kg/day YT30 in solvent (Cremophor RH40:TW80:PEG400 (2:1:1)). Frequency of the administration was once per day and the experiment lasted 16 days after initiation of the treatment.
The body weights of the mice were recorded prior to the start of treatment and twice every week thereafter. Each mouse of every group was monitored daily for any other symptoms of side effects including change in behavior, activity or posture, areas of redness and swelling, and food and water withdrawal. Caliper measurements of the longest perpendicular tumor diameters were performed every 2 days to estimate the tumor volume; the following formula: 4π/3×(width/2)^2×(length/2) was used to calculate the three-dimensional volume of an ellipse. The tumor inhibition rate was calculated according to tumor volume: Tumor inhibition rate by size (%)=(Tumor volume of the control group−Tumor volume of the treated group)/Tumor volume of the control group×100. The SCID mice were euthanized 2 hours after the final injection and the subcutaneous tumor nodules were taken out intact and weighed. The tumor inhibition rate was calculated again according to tumor weight: Tumor inhibition rate by weight (%)=(Tumor weight of the control group−Tumor weight of the treated group)/Tumor weight of the control group×100.

[4] = system: HS 578T; test: Cancer cell line growth inhibition, CellTiter-Glo (Example 3); type: cell-based; settings: Homo sapiens, Breast, 72 hours, read-out: IC50
Experimental: (§1) YT30 was tested for growth inhibition against 67 human cancer cell lines derived from diverse tissues including the National Cancer Institute human cancer cell lines (NCI-60). […] Cells in different wells were treated with various concentrations of YT30, YT86, YT88, or YT128. […] Cell viabilities were determined by the CellTiter-Glo Luminescence Cell Viability assay kit (Promega Corporation, Madison, Wis.) according to manufacturer's protocol.

[5] = system: SF-539; test: as above; type: cell-based; settings: Homo sapiens, CNS, 72 hours, read-out: IC50
Experimental: as §1

[6] = system: MOLT-4; test: as above; type: cell-based; settings: Homo sapiens, Leukemia, 72 hours, read-out: IC50
Experimental: as §1

[7] = system: MDA-MB231; test: as above; type: cell-based; settings: Homo sapiens, MDA-MB-231; Breast, MDA-MB231; 72 hours; read-out: IC50
Experimental: as §1

[8] = system: MDA-MB-435; test: as above; type: cell-based; settings: Homo sapiens, Melanoma, 72 hours, read-out: IC50
Experimental: as §1

[9] = system: HOP-92; test: as above; type: cell-based; settings: Homo sapiens, NSCLC, 72 hours
Experimental: as §1

[10] = system: NCI-H460; test: as above; type: cell-based; settings: Homo sapiens, NSCLC, 72 hours
Experimental: as §1

[11] = system: HOP-62; test: as above; type: cell-based; settings: Homo sapiens, NSCLC, 72 hours
Experimental: as §1

[12] = system: SK-OV-3; test: as above; type: cell-based; settings: Homo sapiens, Ovary, 72 hours
Experimental: as §1

[13] = system: SF-295; test: as above; type: cell-based; settings: Homo sapiens, CNS, 72 hours, read-out: IC50
Experimental: as §1

[14] = system: Caski; test: as above; type: cell-based; settings: Homo sapiens, Ca-Ski, Cervical, 72 hours, read-out: IC50
Experimental: as §1

[15] = system: DU-145; test: as above; type: cell-based; settings: Homo sapiens, Prostate, 72 hours, read-out: IC50
Experimental: as §1

[16] = system: SW-620; test: as above; type: cell-based; settings: Homo sapiens, Colon, 72 hours
Experimental: as §1

[17] = system: Colo 205; test: as above; type: cell-based; settings: Homo sapiens, Colon, 72 hours
Experimental: as §1

[18] = system: OVCAR-3; test: as above; type: cell-based; settings: Homo sapiens, Ovary, 72 hours, read-out: IC50
Experimental: as §1

[19] = system: OVCAR-5; test: as above; type: cell-based; settings: Homo sapiens, Ovary, 72 hours, read-out: IC50
Experimental: as §1

[20] = system: LOX IMVI; test: as above; type: cell-based; settings: Homo sapiens, Melanoma, 72 hours
Experimental: as §1

[21] = system: RPMI-8226; test: as above; type: cell-based; settings: Homo sapiens, Leukemia, 72 hours
Experimental: as §1

[22] = system: A498; test: as above; type: cell-based; settings: Homo sapiens, Renal, 72 hours, read-out: IC50
Experimental: as §1

[23] = system: UO-31; test: as above; type: cell-based; settings: Homo sapiens, Renal, 72 hours, read-out: IC50
Experimental: as §1

[24] = system: M14; test: as above; type: cell-based; settings: Homo sapiens, Melanoma, 72 hours
Experimental: as §1

[25] = system: UACC-62; test: as above; type: cell-based; settings: Homo sapiens, Melanoma, 72 hours
Experimental: as §1

[26] = system: NCI-H23; test: as above; type: cell-based; settings: Homo sapiens, NSCLC, 72 hours
Experimental: as §1

[27] = YT30 50 mg/kg i.p. × 16 days, SCID mice, K562 tumor
[28] = YT30 90 mg/kg p.o. × 16 days, SCID mice, K562 tumor

Q: Which results are given for `Nc1ccccc1NC(=O)CCCCCC(=O)Nc1cccc(Br)c1` [YT30]?
A: pIC50 [1]: 5.94; pIC50 [2]: 5.95; Body weight change [3, 27]: −8.67%; Tumor growth inhibition by size [3, 27]: 44.07%; Tumor growth inhibition by weight [3, 27]: 40.76%; Average body weight, End point [3, 27]: 16.75 ± 1.57 g; Average body weight, Initial [3, 27]: 18.34 ± 0.73 g; Tumor size [3, 27]: 1741.11 ± 1218.90 mm^3; Tumor weight [3, 27]: 2.16 ± 1.86 g; Body weight change [3, 28]: −5.30%; Tumor growth inhibition by size [3, 28]: 41.77%; Tumor growth inhibition by weight [3, 28]: 33.17%; Average body weight, End point [3, 28]: 17.70 ± 2.03 g; Average body weight, Initial [3, 28]: 18.69 ± 1.36 g; Tumor size [3, 28]: 1812.71 ± 581.68 mm^3; Tumor weight [3, 28]: 2.44 ± 0.92 g; Tumor growth inhibition by weight ([3]; intraperitoneal 50 mg/kg/day, 16 days of treatment): 40.76%; Tumor growth inhibition by weight ([3]; oral gavage 90 mg/kg/day, 16 days of treatment): 33.17%; pIC50 [4]: 4.97; pIC50 [5]: 4.97; pIC50 [6]: 5.95; pIC50 [7]: 4.85; pIC50 [8]: 4.98; pIC50 [9]: 4.96; pIC50 [10]: 5.27; pIC50 [11]: 4.53; pIC50 [12]: 5.09; pIC50 [13]: 4.99; pIC50 [14]: 5.30; pIC50 [15]: 5.30; pIC50 [16]: 4.96; pIC50 [17]: 4.84; pIC50 [18]: 5.04; pIC50 [19]: 4.92; pIC50 [20]: 5.52; pIC50 [21]: 5.70; pIC50 [22]: 4.86; pIC50 [23]: 4.97; pIC50 [24]: 5.21; pIC50 [25]: 5.28; pIC50 [26]: 4.96
